# Reference: patent publication US20250288704A1, “CXCR4-LIGANDS FOR DIAGNOSTIC AND THERAPEUTIC USE AND PRECURSORS THEREOF” (priority 2021, published 2025)
# Read-outs that look alike come from different tables or passages of the source. Positions of bridges follow the written chain, without caps; N, C: chain ends. Non-standard residues stand in square brackets, D forms with d. Residues, ends and D or L forms follow the SMILES beside them. Groups on a side chain read outwards from the residue. Chains are numbered I, II in the order given. *: point of attachment. X2 = OC[C@H]1O[C@@H](O[C@H]2[C@H](O)[C@@H](O)[C@H](*)O[C@@H]2CO)[C@H](O)[C@@H](O)[C@H]1O; X5 = CC(C)(C)[Si](F)(c1ccc(C[N+](C)(C)CC(=O)*)cc1)C(C)(C)C; DOTA = O=C(O)CN1CCN(CC(=O)O)CCN(CC(=O)*)CCN(CC(=O)O)CC1; 2Nal = N[C@@H](Cc1ccc2ccccc2c1)C(=O)O; dNMeOrn = CN[C@H](CCCN)C(=O)O; d(hCys) = N[C@H](CCS)C(=O)O; 4Amb = NCc1ccc(C(=O)O)cc1; 4Abz = Nc1ccc(C(=O)O)cc1; dDap = NC[C@@H](N)C(=O)O; Ahx = NCCCCCC(=O)O
# Key:
# [1] = Octanol/PBS partition coefficient (logD7.4); type: physicochemical; details: n-octanol/PBS pH 7.4, radiolabeled compound
# Method: The tubes were vortexed at maximum speed for 3 min to ensure equilibrium before centrifugation at 15.000×g for 5 min on a Biofuge 15 from Heraeus Holding GmbH (Osterode, Germany). An aliquot of 100 μL of each fraction was measured in the γ-counter and the log D7.4 calculated as follows: […]
# [2] = Biodistribution in Jurkat tumor-bearing CB-17 SCID mice; type: in vivo; details: female, CB-17 SCID, mouse, in vivo, iv, total radioactivity
# Method: All animal experiments were conducted in accordance with general animal welfare regulations in Germany and the institutional guidelines for the care and use of animals. To establish tumor xenografts, Jurkat cells (2-3×10^7 cells) were suspended in a mixture of Gibco's RPMI 1640 medium and Matrigel (1/1; v/v) from BD Biosciences (Heidelberg, Germany), and inoculated subcutaneously onto the right shoulder of 6-10 weeks old CB17-SCID mice from either Charles River GmbH (Sulzfeld, Germany) or the in-house mouse breeding facility. Mice were used when tumors had grown to a diameter of 5-8 mm (4-10 weeks after inoculation).
# Approximately 0.5-20 MBq (0.02-0.20 nmol) of the ^125I-, ^177Lu-, ^99mTc-, ^18F- or ^68Ga-labeled ligand were injected into the tail vein of Jurkat tumor-bearing CB-17 SCID mice and the animals sacrificed after the respective biodistribution time. Selected organs were removed, weighted and measured in a γ-counter.
# [3] = system: CXCR4-expressing Chem_1 cells; assay: Determination of internalization, dual tracer with 125I-Fc-131; type: cell-based; details: for Cell-bound [%] / Internalized [%]: of total cellular activity
# Method: CXCR4-expressing Chem_1 cells were grown in DMEM-F12 medium supplemented with 10 vol % FBS, 1 vol % NEA, 1 vol % PenStrep and 1 vol % HEPES (1.00 M). Cells were maintained in a 5% CO2 atmosphere at 37° C.
# For in vitro experiments, cells were harvested by removal of the medium and incubation of the cells with trypsine/EDTA (0.05%/0.02%; w/v) for 30 in at 37° C.
# Each well (n=3 for every time point) was either treated with 25 μL DMEM-F12 (+5 wt % BSA) or 25 μL of an AMD3100 stock (1 mM in H2O) for blockage of the receptors.
# The experiment was stopped by placing the well-plate on ice and removing the supernatant. The cells were washed with 250 μL cold HBSS and the both fractions for each well combined, comprising the amount of unbound radioligand.
# The supernatant was removed, the cells washed with cold HBSS and the respective fractions combined to obtain the amount of surface-bound radioligand.
# The cells were then incubated with 300 μL NaOH (1.00 M in H2O) for at least 30 at r.t. before the supernatant was removed. The well was washed with another 300 μL NaOH and the fractions combined that contain the amount of internalized radioligand.
# The three different fractions were subjected to activity measurement in the γ-counter, measuring the activity of the radionuclide used for the labeling of the peptide under investigation first. […] Data was corrected for non-specific internalization and referred to the specific internalization of the standard ligand
tissue uptake at 1 h ([2]; % iD/g Blood),tissue uptake at 1 h ([2]; % iD/g Bone),tissue uptake at 1 h ([2]; % iD/g Heart),tissue uptake at 1 h ([2]; % iD/g Intestine),tissue uptake at 1 h ([2]; % iD/g Kidney),tissue uptake at 1 h ([2]; % iD/g Liver),tissue uptake at 1 h ([2]; % iD/g Lung),tissue uptake at 1 h ([2]; % iD/g Muscle),tissue uptake at 1 h ([2]; % iD/g Pancreas),tissue uptake at 1 h ([2]; % iD/g Spleen),tissue uptake at 1 h ([2]; % iD/g Stomach),tissue uptake at 1 h ([2]; % iD/g Tumor),Compound,logD7.4 [1],other results
,,,,,,,,,,,,C[C@@H](NC(=O)[C@@H](CCCNC(=N)N)NC(=O)[C@@H](CNC(=O)c1ccc([Si](F)(C(C)(C)C)C(C)(C)C)cc1)NC(=O)CC[C@H](C(=O)O)N1CCN(CC(=O)O)CCN(CC(=O)O)CCN(CC(=O)O)CC1)C(=O)Nc1ccc(C(=O)NCCC[C@@H]2C(=O)N[C@@H](CCCNC(=N)N)C(=O)N[C@@H](Cc3ccc4ccccc4c3)C(=O)NCC(=O)N[C@H](Cc3ccc(O)cc3)C(=O)N2C)cc1 [CXCR4-SiFA-1 [Ga]],0.66 ± 0.01 (8),
1.29 %ID/g,0.48 %ID/g,0.56 %ID/g,0.43 %ID/g,2.75 %ID/g,1.59 %ID/g,1.57 %ID/g,0.19 %ID/g,0.14 %ID/g,1.48 %ID/g,0.51 %ID/g,7.58 %ID/g,"CN1C(=O)[C@@H](Cc2ccc(O)cc2)NC(=O)CNC(=O)[C@H](Cc2ccc3ccccc3c2)NC(=O)[C@H](CCCNC(=N)N)NC(=O)[C@H]1CCCNC(=O)c1ccc(CNC(=O)CN2CCN(CC(=O)O)CCN(CC(=O)O)CCN(CC(=O)O)CC2)cc1 [^68Ga-Pentixafor, cyclo(D-Tyr^1-D-[NMe](DOTA)-Orn^2Arg^3-Nal^4-Gly^5), metal not drawn, reference compound] (cyclo([dY][dNMeOrn]([4Amb-DOTA])R[2Nal]G))",,
1.24 %ID/g,0.72 %ID/g,0.73 %ID/g,0.67 %ID/g,18.8 %ID/g,11 %ID/g,2.16 %ID/g,0.22 %ID/g,0.39 %ID/g,3.19 %ID/g,1.06 %ID/g,5.98 %ID/g,C[C@@H](NC(=O)[C@@H](CCCNC(=N)N)NC(=O)[C@@H](CN)NC(=O)CN1CCN(CC(=O)O)CCN(CC(=O)O)CCN(CC(=O)O)CC1)C(=O)NCc1ccc(C(=O)NCCC[C@@H]2C(=O)N[C@@H](CCCNC(=N)N)C(=O)N[C@@H](Cc3ccc4ccccc4c3)C(=O)NCC(=O)N[C@H](Cc3ccc(O)cc3)C(=O)N2C)cc1 [CXCR4-DOTA-1 [Lu]] (cyclo([dY][dNMeOrn]([4Amb-dA-dR-dDap-DOTA])R[2Nal]G)),,
,,,,,,,,,,,,C[C@@H](NC(=O)[C@@H](CCCNC(=N)N)NC(=O)[C@@H](CNC(=O)c1ccc([Si](F)(C(C)(C)C)C(C)(C)C)cc1)NC(=O)CC[C@H](C(=O)O)N1CCN(CC(=O)O)CCN(CC(=O)O)CCN(CC(=O)O)CC1)C(=O)Nc1ccc(C(=O)NCCC[C@@H]2C(=O)N[C@@H](CCCNC(=N)N)C(=O)N[C@@H](Cc3ccc4ccccc4c3)C(=O)NCC(=O)N[C@H](Cc3ccc(O)cc3)C(=O)N2C)cc1 [CXCR4-SiFA-1 [Lu]],1.41 ± 0.04 (8),
,,,,,,,,,,,,C[C@@H](NC(=O)[C@@H](CCCNC(=N)N)NC(=O)[C@@H](Cc1c[nH]cn1)NC(=O)[C@@H](CNC(=O)c1ccc([Si](F)(C(C)(C)C)C(C)(C)C)cc1)NC(=O)CC[C@H](C(=O)O)N1CCN(CC(=O)O)CCN(CC(=O)O)CCN(CC(=O)O)CC1)C(=O)Nc1ccc(C(=O)NCCC[C@@H]2C(=O)N[C@@H](CCCNC(=N)N)C(=O)N[C@@H](Cc3ccc4ccccc4c3)C(=O)NCC(=O)N[C@H](Cc3ccc(O)cc3)C(=O)N2C)cc1 [CXCR4-SiFA-2 [Lu]],0.80 ± 0.04 (8),
,,,,,,,,,,,,C[C@@H](NC(=O)[C@@H](CCCNC(=N)N)NC(=O)[C@@H](CN)NC(=O)CCCCCNC(=O)[C@@H](CNC(=O)CN1CCN(CC(=O)O)CCN(CC(=O)O)CCN(CC(=O)O)CC1)NC(=O)[C@@H](CCS[C@@H]1O[C@H](CO)[C@@H](O[C@@H]2O[C@H](CO)[C@H](O)[C@H](O)[C@H]2O)[C@H](O)[C@H]1O)NC(=O)C[N+](C)(C)Cc1ccc([Si](F)(C(C)(C)C)C(C)(C)C)cc1)C(=O)Nc1ccc(C(=O)NCCC[C@@H]2C(=O)N[C@@H](CCCNC(=N)N)C(=O)N[C@@H](Cc3ccc4ccccc4c3)C(=O)NCC(=O)N[C@H](Cc3ccc(O)cc3)C(=O)N2C)cc1 [CXCR4-SiFA-7 [Ga]] (I: X5-[d(hCys)](X2)[dDap](DOTA)[Ahx][dDap][dR][dA][4Abz] / II: cyclo([dY][dNMeOrn]R[2Nal]G); amide I:C-II:2),,"tissue uptake at 1 h ([2]; Blood, 1 h p.i., Jurkat xenograft, CB-17 SCID female mice, read-out: % iD/g Blood): 0.85 %ID/g; tissue uptake at 1 h ([2]; Bone, 1 h p.i., Jurkat xenograft, CB-17 SCID female mice, read-out: % iD/g Bone): 2.89 %ID/g; tissue uptake at 1 h ([2]; Heart, 1 h p.i., Jurkat xenograft, CB-17 SCID female mice, read-out: % iD/g Heart): 1.13 %ID/g; tissue uptake at 1 h ([2]; Intestine, 1 h p.i., Jurkat xenograft, CB-17 SCID female mice, read-out: % iD/g Intestine): 0.81 %ID/g; tissue uptake at 1 h ([2]; Kidney, 1 h p.i., Jurkat xenograft, CB-17 SCID female mice, read-out: % iD/g Kidney): 11.1 %ID/g; tissue uptake at 1 h ([2]; Liver, 1 h p.i., Jurkat xenograft, CB-17 SCID female mice, read-out: % iD/g Liver): 53.5 %ID/g; tissue uptake at 1 h ([2]; Lung, 1 h p.i., Jurkat xenograft, CB-17 SCID female mice, read-out: % iD/g Lung): 2.13 %ID/g; tissue uptake at 1 h ([2]; Muscle, 1 h p.i., Jurkat xenograft, CB-17 SCID female mice, read-out: % iD/g Muscle): 0.26 %ID/g; tissue uptake at 1 h ([2]; Pancreas, 1 h p.i., Jurkat xenograft, CB-17 SCID female mice, read-out: % iD/g Pancreas): 0.51 %ID/g; tissue uptake at 1 h ([2]; Spleen, 1 h p.i., Jurkat xenograft, CB-17 SCID female mice, read-out: % iD/g Spleen): 6.96 %ID/g; tissue uptake at 1 h ([2]; Stomach, 1 h p.i., Jurkat xenograft, CB-17 SCID female mice, read-out: % iD/g Stomach): 0.63 %ID/g; tissue uptake at 1 h ([2]; Tumor, 1 h p.i., Jurkat xenograft, CB-17 SCID female mice, read-out: % iD/g Tumor): 0.67 %ID/g"

Compound,tissue uptake at 1 h ([2]; % iD/g Blood),tissue uptake at 1 h ([2]; % iD/g Bone),tissue uptake at 1 h ([2]; % iD/g Heart),tissue uptake at 1 h ([2]; % iD/g Intestine),tissue uptake at 1 h ([2]; % iD/g Kidney),tissue uptake at 1 h ([2]; % iD/g Liver),tissue uptake at 1 h ([2]; % iD/g Lung),tissue uptake at 1 h ([2]; % iD/g Muscle),tissue uptake at 1 h ([2]; % iD/g Pancreas),tissue uptake at 1 h ([2]; % iD/g Spleen),tissue uptake at 1 h ([2]; % iD/g Stomach),tissue uptake at 1 h ([2]; % iD/g Tumor),logD7.4 [1],other results
"C[C@@H](NC(=O)[C@@H](CCCNC(=N)N)NC(=O)[C@@H](CN)NC(=O)CCCCCNC(=O)[C@@H](CNC(=O)CN1CCN(CC(=O)O)CCN(CC(=O)O)CCN(CC(=O)O)CC1)NC(=O)CCCCC[N+]1=C(/C=C/C=C/C=C2/N(C)c3ccc(S(=O)(=O)O)cc3C2(C)C)C(C)(C)c2cc(S(=O)(=O)[O-])ccc21)C(=O)Nc1ccc(C(=O)NCCC[C@@H]2C(=O)N[C@@H](CCCNC(=N)N)C(=O)N[C@@H](Cc3ccc4ccccc4c3)C(=O)NCC(=O)N[C@H](Cc3ccc(O)cc3)C(=O)N2C)cc1 [[^natLu]CXCR4-OI-3, metal not drawn]",1.9 %ID/g,1.1 %ID/g,1.39 %ID/g,0.85 %ID/g,35 %ID/g,36.3 %ID/g,4.28 %ID/g,0.33 %ID/g,0.44 %ID/g,5.94 %ID/g,1.43 %ID/g,2.13 %ID/g,,Internalized in relation to 125I-Fc-131 [%] ([3]; 30 min): 442 ± 12.1%; Cell-bound [%] ([3]; 30 min): 5.39 ± 0.41%; Internalized [%] ([3]; 30 min): 16.5 ± 0.19%; Internalized in relation to 125I-Fc-131 [%] ([3]; 90 min): 540 ± 42.7%; Cell-bound [%] ([3]; 90 min): 5.36 ± 0.47%; Internalized [%] ([3]; 90 min): 25.2 ± 1.08%
